For 13 molecules, EC50 and potency results are on record in patent publication US12617783B2, “Heterocyclic GLP-1R agonists” (BIOMEA FUSION, INC., priority 2024, dated 2026).

For the first assay, the target named is T1, human GLP-1R (Homo sapiens, UniProt P43220).
T1 construct: host or cells: HEK293
T1 sequence (P43220 24-463): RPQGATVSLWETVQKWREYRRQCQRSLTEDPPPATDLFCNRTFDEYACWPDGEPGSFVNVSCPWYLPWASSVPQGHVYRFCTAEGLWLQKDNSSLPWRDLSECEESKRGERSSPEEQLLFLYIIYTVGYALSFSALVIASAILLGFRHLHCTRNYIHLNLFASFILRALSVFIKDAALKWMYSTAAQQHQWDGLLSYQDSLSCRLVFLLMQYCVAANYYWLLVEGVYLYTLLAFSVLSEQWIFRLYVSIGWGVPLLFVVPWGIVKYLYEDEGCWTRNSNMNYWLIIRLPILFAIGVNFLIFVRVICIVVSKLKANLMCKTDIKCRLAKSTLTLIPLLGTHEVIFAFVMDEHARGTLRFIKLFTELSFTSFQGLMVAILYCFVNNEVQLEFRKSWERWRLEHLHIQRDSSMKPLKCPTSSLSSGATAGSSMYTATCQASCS
Description: GLP-1R cAMP assay (Example B1a, HTRF, 30 min at room temperature). It counts as cell-based. The following applies: Table 1d, stereoisomer pairs; read-out: EC50. The gist of the method:
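Competitive HTRF read-out of cAMP after 30 min room-temperature stimulation, BETP absent, of human GLP-1R-HEK293 cells (1,000/well) in HEPES buffer with 500 μM IBMX and 0.1% BSA. Activation normalised to GLP-1(7-37) positive control. EC50 from 4-parameter non-linear regression.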
Background: Changes in cAMP serve as a functional read-out for many G protein-coupled receptors.
In general, EC50 refers to the concentration that produces a half-maximal response. Take `Cc1cc(-n2nc3c(c2-n2ccn(-c4ccc5c(cnn5C)c4F)c2=O)[C@H]2COC[C@@H](C3)N2C(=O)c2cc3cc([C@H]4CCOC(C)(C)C4)ccc3n2[C@@]2(c3noc(=O)[nH]3)C[C@@H]2C)cc(C)c1F` [Compound 120, 3-((1S,2S)-1-(5-((S)-2,2-dimethyltetrahydro-2H-pyran-4-yl)-2-((4S,8R)-3-(3-(4-fluoro-1-methyl-1H-indazol-5-yl)-2-oxo-2,3-dihydro-1H-imidazol-1-yl)-2-(4-fluoro-3,5-dimethylphenyl)-2,4,5,7,8,9-hexahydro-4,8-epiminooxocino [5,4-c]pyrazole-10-carbonyl)-1H-indol-1-yl)-2-methylcyclopropyl)-1,2,4-oxadiazol-5(4H)-one]: the EC50 is above 10000 nM.

Staying with this assay, now noted: cAMP accumulation in HEK293 expressing human GLP-1R, no BETP, 30 min room temperature (Method B1a, compounds ID 1-609), Table 1; read-out: EC50.
`Cc1cc(-n2nc3c(c2-c2ncn(-c4ccc5c(cnn5C)c4F)c2C)[C@H](C)N(C(=O)c2cc4cc(N5CCS(=O)(=O)CC5)ccc4n2C2(c4noc(=O)[nH]4)CC2)CC3)cc(C)c1F` [Compound 108, 3-[1-[5-(1,1-dioxo-1,4-thiazinan-4-yl)-2-[(4S)-2-(4-fluoro-3,5-dimethyl-phenyl)-3-[1-(4-fluoro-1-methyl-indazol-5-yl)-5-methyl-imidazol-4-yl]-4-methyl-6,7-dihydro-4H-pyrazolo[4,3-c]pyridine-5-carbonyl]indol-1-yl]cyclopropyl]-4H-1,2,4-oxadiazol-5-one]: the concentration giving a half-maximal response (EC50) was above 10000 nM.
Take `Cc1cc(-n2nc3c(c2-n2ccn(-c4ccc5c(cnn5C)c4F)c2=O)[C@H]2CC[C@@H](C3)N2C(=O)c2cc3cc([C@@H]4CCOC5(CC5)C4)ccc3n2[C@@]2(c3noc(=O)[nH]3)C[C@@H]2C)cc(C)c1F` [Compound 414, 3-((1S,2S)-1-(2-((4R,7S)-3-(3-(4-fluoro-1-methyl-1H-indazol-5-yl)-2-oxo-2,3-dihydro-1H-imidazol-1-yl)-2-(4-fluoro-3,5-dimethylphenyl)-2,4,5,6,7,8-hexahydro-4,7-epiminocyclohepta [c]pyrazole-9-carbonyl)-5-((R)-4-oxaspiro[2.5]octan-7-yl)-1H-indol-1-yl)-2-methylcyclopropyl)-1,2,4-oxadiazol-5 (4H)-one]: the EC50 was at least 10000 nM.
As for `Cc1cc(-n2nc3c(c2-n2ccn(-c4ccc(C(N)=O)c(F)c4)c2=O)[C@@H]2CC[C@H](C3)N2C(=O)c2cc3cc([C@H]4CCOC(C)(C)C4)ccc3n2[C@@]2(c3noc(=O)[nH]3)C[C@@H]2C)cc(C)c1F` [Compound 412, 4-[3-[(1S,8R)-11-[5-[(4S)-2,2-dimethyltetrahydropyran-4-yl]-1-[(1S,2S)-2-methyl-1-(5-oxo-4H-1,2,4-oxadiazol-3-yl)cyclopropyl]indole-2-carbonyl]-4-(4-fluoro-3,5-dimethyl-phenyl)-4,5,11-triazatricyclo[6.2.1.02,6]undeca-2,5-dien-3-yl]-2-oxo-imidazol-1-yl]-2-fluoro-benzamide], the EC50 was found to be 551 nM.
For the molecule `Cc1cc(-n2nc3c(c2-n2ccn(-c4ccc5c(cnn5C)c4F)c2=O)[C@H]2CC[C@@H](C3)N2C(=O)c2cc3cc([C@H]4CCOC5(CC5)C4)ccc3n2[C@]2(c3noc(=O)[nH]3)C[C@H]2C)cc(C)c1F` [Compound 520, 3-[(1R,2R)-1-[2-[(1R,8S)-4-(4-fluoro-3,5-dimethyl-phenyl)-3-[3-(4-fluoro-1-methyl-indazol-5-yl)-2-oxo-imidazol-1-yl]-4,5,11-triazatricyclo[6.2.1.02,6]undeca-2,5-diene-11-carbonyl]-5-[(7S)-4-oxaspiro[2.5]octan-7-yl]indol-1-yl]-2-methyl-cyclopropyl]-4H-1,2,4-oxadiazol-5-one], the EC50 was at least 10000 nM.
Regarding `Cc1cc(-n2nc3c(c2-n2ccn(-c4ccc5c(cnn5C)c4F)c2=O)[C@@H]2CC[C@H](C3)N2C(=O)c2cc3cc(C4CCOCC4)ccc3n2[C@@]2(c3noc(=O)[nH]3)C[C@@H]2C)cc(C)c1F` [Compound 208, 3-((1S,2S)-1-(2-((4S,7R)-3-(3-(4-fluoro-1-methyl-1H-indazol-5-yl)-2-oxo-2,3-dihydro-1H-imidazol-1-yl)-2-(4-fluoro-3,5-dimethylphenyl)-2,4,5,6,7,8-hexahydro-4,7-epiminocyclohepta [c]pyrazole-9-carbonyl)-5-(tetrahydro-2H-pyran-4-yl)-1H-indol-1-yl)-2-methylcyclopropyl)-1,2,4-oxadiazol-5 (4H)-one], the EC50 was 182 nM.
Turning to `Cc1cc(-n2nc3c(c2-n2ccn(-c4ccc5c(cnn5C)c4F)c2=O)[C@@H]2CC[C@H](C3)N2C(=O)c2cc3nc(C4CCOC(C)(C)C4)sc3cc2C2(c3noc(=O)[nH]3)CC2)cc(C)c1F` (stereo partly drawn) [Compound 129, 3-[1-[2-(2,2-dimethyltetrahydropyran-4-yl)-5-[(1S,8R)-4-(4-fluoro-3,5-dimethyl-phenyl)-3-[3-(4-fluoro-1-methyl-indazol-5-yl)-2-oxo-imidazol-1-yl]-4,5,11-triazatricyclo[6.2.1.02,6]undeca-2,5-diene-11-carbonyl]-1,3-benzothiazol-6-yl]cyclopropyl]-4H-1,2,4-oxadiazol-5-one], the 50% effective concentration (EC50) was above 10000 nM.
With `Cc1cc(-n2nc3c(c2-n2ccn(-c4ccc5c(cnn5C)c4F)c2=O)[C@@H]2CC[C@H](C3)N2C(=O)c2cc3cc(C4CCOC(C)(C)C4)ncc3n2[C@@]2(c3noc(=O)[nH]3)C[C@@H]2C)cc(C)c1F` (stereo partly drawn) [Compound 209, 3-((1S,2S)-1-(5-(2,2-dimethyltetrahydro-2H-pyran-4-yl)-2-((4S,7R)-3-(3-(4-fluoro-1-methyl-1H-indazol-5-yl)-2-oxo-2,3-dihydro-1H-imidazol-1-yl)-2-(4-fluoro-3,5-dimethylphenyl)-2,4,5,6,7,8-hexahydro-4,7-epiminocyclohepta [c]pyrazole-9-carbonyl)-1H-pyrrolo[2,3-c]pyridin-1-yl)-2-methylcyclopropyl)-1,2,4-oxadiazol-5 (4H)-one], the EC50 amounted to 117 nM.
Same read-out and setting: for `Cc1cc(-n2nc3c(c2-n2ccn(-c4ccc5c(cnn5C)c4F)c2=O)[C@H]2CC[C@@H](C3)N2C(=O)c2cc3cc([C@H]4CCOC5(CC5)C4)ccc3n2[C@@]2(c3noc(=O)[nH]3)C[C@H]2C)cc(C)c1F` [Compound 539, 3-((1S,2R)-1-(2-((4R,7S)-3-(3-(4-fluoro-1-methyl-1H-indazol-5-yl)-2-oxo-2,3-dihydro-1H-imidazol-1-yl)-2-(4-fluoro-3,5-dimethylphenyl)-2,4,5,6,7,8-hexahydro-4,7-epiminocyclohepta [c]pyrazole-9-carbonyl)-5-((S)-4-oxaspiro[2.5]octan-7-yl)-1H-indol-1-yl)-2-methylcyclopropyl)-1,2,4-oxadiazol-5 (4H)-one] the value was at least 10000 nM.
Regarding `Cc1cc(-n2nc3c(c2-n2ccn(-c4ccc5c(cnn5C)c4F)c2=O)CN(C(=O)c2cc4cc([C@H]5CCOC(C)(C)C5)ccc4n2[C@@]2(c4noc(=O)[nH]4)C[C@@H]2C)CCC3)cc(C)c1F` [Compound 416, 3-((1S,2S)-1-(5-((S)-2,2-dimethyltetrahydro-2H-pyran-4-yl)-2-(3-(3-(4-fluoro-1-methyl-1H-indazol-5-yl)-2-oxo-2,3-dihydro-1H-imidazol-1-yl)-2-(4-fluoro-3,5-dimethylphenyl)-2,4,5,6,7,8-hexahydropyrazolo[4,3-c]azepine-5-carbonyl)-1H-indol-1-yl)-2-methylcyclopropyl)-1,2,4-oxadiazol-5(4H)-one], the EC50 worked out at 162 nM.
Regarding `Cc1cc(-n2nc3c(c2-n2ccn(-c4ccc5c(cnn5C)c4F)c2=O)[C@H]2COC[C@@H](C3)N2C(=O)c2cc3cc([C@H]4CCOC(C)(C)C4)ccc3n2[C@@]2(c3noc(=O)[nH]3)C[C@@H]2C)cc(C)c1F` [Compound 120, 3-((1S,2S)-1-(5-((S)-2,2-dimethyltetrahydro-2H-pyran-4-yl)-2-((4S,8R)-3-(3-(4-fluoro-1-methyl-1H-indazol-5-yl)-2-oxo-2,3-dihydro-1H-imidazol-1-yl)-2-(4-fluoro-3,5-dimethylphenyl)-2,4,5,7,8,9-hexahydro-4,8-epiminooxocino [5,4-c]pyrazole-10-carbonyl)-1H-indol-1-yl)-2-methylcyclopropyl)-1,2,4-oxadiazol-5(4H)-one], the EC50 was above 10000 nM.
`Cc1cc(-n2nc3c(c2-c2nc(-c4ccc5c(cnn5C)c4F)c(C)[nH]2)[C@H](C)N(C(=O)c2cc4cc([C@H]5CCOC(C)(C)C5)ccc4n2[C@@]2(c4noc(=O)[nH]4)C[C@@H]2C)CC3)cc(C)c1F` [Compound 24, 3-((1S,2S)-1-(5-((S)-2,2-dimethyltetrahydro-2H-pyran-4-yl)-2-((S)-3-(4-(4-fluoro-1-methyl-1H-indazol-5-yl)-5-methyl-1H-imidazol-2-yl)-2-(4-fluoro-3,5-dimethylphenyl)-4-methyl-4,5,6,7-tetrahydro-2H-pyrazolo[4,3-c]pyridine-5-carbonyl)-1H-indol-1-yl)-2-methylcyclopropyl)-1,2,4-oxadiazol-5 (4H)-one]: the concentration for a half-maximal effect (EC50) is above 10000 nM.
As to `Cc1cc(-n2nc3c(c2-n2ccn(-c4ccc5c(cnn5C)c4F)c2=O)[C@@H]2CC[C@H](C3)N2S(=O)(=O)c2cc3cc(C4CCOC(C)(C)C4)ccc3n2[C@]2(c3noc(=O)[nH]3)C[C@@H]2C)cc(C)c1F` (stereo partly drawn) [Compound 504, 3-[(1R,2S)-1-[5-(2,2-dimethyltetrahydropyran-4-yl)-2-[[(1S,8R)-4-(4-fluoro-3,5-dimethyl-phenyl)-3-[3-(4-fluoro-1-methyl-indazol-5-yl)-2-oxo-imidazol-1-yl]-4,5,11-triazatricyclo[6.2.1.02,6]undeca-2,5-dien-11-yl]sulfonyl]indol-1-yl]-2-methyl-cyclopropyl]-4H-1,2,4-oxadiazol-5-one], the EC50 was 1930 nM.
As to `Cc1cc(-n2nc3c(c2-n2ccn(-c4ccc5c(cnn5C)c4F)c2=O)C2CCC([C@@H]3F)N2C(=O)c2cc3cc([C@H]4CCOC(C)(C)C4)ccc3n2[C@@]2(c3noc(=O)[nH]3)C[C@@H]2C)cc(C)c1F` (stereo partly drawn) [Compound 507, cis-3-((1S,2S)-1-(5-((S)-2,2-dimethyltetrahydro-2H-pyran-4-yl)-2-(8-fluoro-3-(3-(4-fluoro-1-methyl-1H-indazol-5-yl)-2-oxo-2,3-dihydro-1H-imidazol-1-yl)-2-(4-fluoro-3,5-dimethylphenyl)-2,4,5,6,7,8-hexahydro-4,7-epiminocyclohepta [c]pyrazole-9-carbonyl)-1H-indol-1-yl)-2-methylcyclopropyl)-1,2,4-oxadiazol-5 (4H)-one], the EC50 was 630 nM.

The same assay, now with this note: text to Table 1d, bridge atoms configured out of the plane or toward the reader.
Regarding `Cc1cc(-n2nc3c(c2-n2ccn(-c4ccc5c(cnn5C)c4F)c2=O)[C@H]2COC[C@@H](C3)N2C(=O)c2cc3cc([C@H]4CCOC(C)(C)C4)ccc3n2[C@@]2(c3noc(=O)[nH]3)C[C@@H]2C)cc(C)c1F` [Compound 120, 3-((1S,2S)-1-(5-((S)-2,2-dimethyltetrahydro-2H-pyran-4-yl)-2-((4S,8R)-3-(3-(4-fluoro-1-methyl-1H-indazol-5-yl)-2-oxo-2,3-dihydro-1H-imidazol-1-yl)-2-(4-fluoro-3,5-dimethylphenyl)-2,4,5,7,8,9-hexahydro-4,8-epiminooxocino [5,4-c]pyrazole-10-carbonyl)-1H-indol-1-yl)-2-methylcyclopropyl)-1,2,4-oxadiazol-5(4H)-one], the potency entry is “little or no potency”.
